Where a SMILES comes first, the peptide text is derived from it. [ ]: non-standard residue; d: D form. The star is where a group is joined. Palmitoyl = CCCCCCCCCCCCCCCC(=O)*; AEEA = NCCOCCOCC(=O)O

Data set [1] is described as follows: Compound gel-forming ability in water (visual inspection, tube tapping assay, tilted tube assay).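 Also: peptides mixed with de-ionized water at about 22-25 °C, judged after 20 min by eye plus tube tapping (10 taps, moves counted) and 90° tilt mobility.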 The data set is classed as physicochemical.
Data set [2] has as its target kappa opioid receptor (OPRK1) (Homo sapiens, UniProt P41145). In words: OPRK1 cAMP assay (Discoverx), agonistic. The data set is classed as cell-based. The procedure:
The agonistic activities toward MC1R, MC4R, CRHR2, PTHR1, and OPRK1 were assyed with an MC1R cAMP assay, an MC4R cAMP assay, a CRHR2 cAMP assay, a PTHR1 cAMP assay and an OPRK1 cAMP assay from Discoverx Inc. (Fremont, Calif.), respectively. The antagonistic activities toward bradykinin receptor 2 (BDKRB2) and GnRH receptor (GnRHR or LHRHR) were assayed with a BDKRB2 arrestin assay and a GnRHR calcium flux assay from Discoverx, respectively.
For the analysis of Gs-coupled cAMP production, cAMP Hunter cell lines were expanded from freezer stocks, and cells were seeded in a total volume of 20 μL into white walled, 384-well microplates and incubated at 37 C for the appropriate time prior to testing. The cAMP modulation was determined using the DiscoverX HitHunter cAMP XS+ assay. For agonistic activity determination, cells were incubated with sample to induce response. Media was aspirated from cells and replaced with 15 μL 2:1 HBSS/10 mM Hepes: cAMP XS+ Ab reagent. […] The compound activity was analyzed using a CBIS data analysis suite (ChemInnovation, CA). For Gs-coupled agonistic assays, percentage activity is calculated using the following formula: % Activity=100%×(mean RLU of test sample−mean RLU of vehicle control)/(mean RLU of MAX control−mean RLU of vehicle control).

kappa opioid receptor (OPRK1), sequence (P41145 whole entry): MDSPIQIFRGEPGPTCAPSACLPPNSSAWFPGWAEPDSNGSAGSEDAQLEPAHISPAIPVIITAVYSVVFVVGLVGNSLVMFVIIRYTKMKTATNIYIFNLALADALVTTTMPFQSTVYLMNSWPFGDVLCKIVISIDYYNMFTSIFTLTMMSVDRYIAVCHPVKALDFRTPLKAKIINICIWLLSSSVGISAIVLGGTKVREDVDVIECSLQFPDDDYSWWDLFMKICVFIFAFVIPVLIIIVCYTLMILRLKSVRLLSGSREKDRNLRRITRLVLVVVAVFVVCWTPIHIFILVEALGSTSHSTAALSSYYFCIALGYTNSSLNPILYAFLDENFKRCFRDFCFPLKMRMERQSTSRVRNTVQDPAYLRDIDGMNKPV

On to `CCCCCCCCCCCCCCCC(=O)N[C@@H](CO)C(=O)N[C@@H](CO)C(=O)N1CCC[C@H]1C(=O)N[C@@H](Cc1c[nH]cn1)C(=O)N[C@@H](CO)C(=O)N[C@@H](Cc1ccc(O)cc1)C(=O)NCCOCCOCC(=O)N[C@H](Cc1ccccc1)C(=O)N[C@H](Cc1ccccc1)C(=O)N[C@@H](Cc1c[nH]c2ccccc12)C(=O)N[C@H](CCCNC(=N)N)C(=O)O` [SEQ ID NO:214, Pal-SSPHSY-miniPEG-(D-Phe)-(D-Phe)-Trp-(D-Arg)] (Palmitoyl-SSPHSY[AEEA][dF][dF]W[dR]-OH; N-terminus and C-terminus assumed), for which the “gel formation at 3% w/w” value in data set [1] (3% w/w in water) is “liquid gel”. Moreover, in data set [1] (6% w/w in water), the “gel formation at 6% w/w” value is reported as “semisolid gel”. Also, in data set [1] (11% w/w in water), the “gel formation at 11% w/w” value is on record as “semisolid gel”. Further, the “gel formation in aqueous solution, 6%” value in data set [1] (Table 3, 6% w/w) is listed as “SS (SS for semisolid gel)”. Also, the “gel formation in aqueous solution, 11%” value in data set [1] (Table 3, 11% w/w) is on record as “SS (SS for semisolid gel)”. Further, in data set [1] (Table 5, 6% w/w), the “propensity to form gels, chimeric or mutated polypeptides, 6%” value is on record as “SS (An ability to form semisolid gel is represented by an SS)”. Also, in data set [1] (Table 5, 11% w/w), the “propensity to form gels, chimeric or mutated polypeptides, 11%” value is “SS (An ability to form semisolid gel is represented by an SS)”. The “Max Activity % of positive control” value in data set [2] is recorded as 62 % of positive control.

The record behind these values is patent US20200405868A1, “GEL-FORMING POLYPEPTIDES” (priority 2018, published 2020).
